Assay results taken from BindingDB's records for PubMed 2385234 (Universit&Eacute, 1990).
Where “and” joins values, the source holds several entries; their conditions need not be identical. Identical values can stand only once.

Key:
[1] = molecular target: T1, Muscarinic acetylcholine receptor M4 (Mus musculus, UniProt P32211)
T1 sequence (P32211 whole entry): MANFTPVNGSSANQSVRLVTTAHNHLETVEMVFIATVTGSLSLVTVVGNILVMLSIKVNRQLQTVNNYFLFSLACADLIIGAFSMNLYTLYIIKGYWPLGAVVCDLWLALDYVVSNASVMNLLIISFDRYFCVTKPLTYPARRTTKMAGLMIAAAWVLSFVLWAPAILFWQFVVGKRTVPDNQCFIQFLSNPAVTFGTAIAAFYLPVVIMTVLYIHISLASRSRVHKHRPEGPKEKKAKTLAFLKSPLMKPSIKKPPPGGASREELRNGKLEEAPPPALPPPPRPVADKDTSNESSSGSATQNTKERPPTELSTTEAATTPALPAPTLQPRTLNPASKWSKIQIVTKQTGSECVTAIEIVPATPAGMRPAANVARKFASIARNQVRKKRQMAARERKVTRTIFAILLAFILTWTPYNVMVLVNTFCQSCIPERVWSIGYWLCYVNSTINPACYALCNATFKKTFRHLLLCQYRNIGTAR

[2] = molecular target: T2, Muscarinic acetylcholine receptor M4 (Rattus norvegicus, UniProt P08485)
T2 sequence (P08485 whole entry): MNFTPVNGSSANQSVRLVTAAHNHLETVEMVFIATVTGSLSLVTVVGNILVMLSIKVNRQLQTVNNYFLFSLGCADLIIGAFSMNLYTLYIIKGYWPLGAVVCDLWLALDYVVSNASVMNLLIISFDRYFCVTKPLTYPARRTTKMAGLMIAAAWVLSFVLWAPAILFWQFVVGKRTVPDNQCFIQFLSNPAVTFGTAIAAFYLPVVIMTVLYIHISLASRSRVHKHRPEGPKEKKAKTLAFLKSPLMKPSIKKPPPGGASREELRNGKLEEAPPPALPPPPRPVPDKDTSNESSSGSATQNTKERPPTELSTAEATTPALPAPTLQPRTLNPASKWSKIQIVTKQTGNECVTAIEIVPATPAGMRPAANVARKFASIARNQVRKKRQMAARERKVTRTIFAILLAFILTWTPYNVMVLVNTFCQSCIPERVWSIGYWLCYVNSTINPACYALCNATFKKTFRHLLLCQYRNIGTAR

[3] = molecular target: T3, Muscarinic acetylcholine receptor M2 (Rattus norvegicus, UniProt P10980)
T3 sequence (P10980 whole entry): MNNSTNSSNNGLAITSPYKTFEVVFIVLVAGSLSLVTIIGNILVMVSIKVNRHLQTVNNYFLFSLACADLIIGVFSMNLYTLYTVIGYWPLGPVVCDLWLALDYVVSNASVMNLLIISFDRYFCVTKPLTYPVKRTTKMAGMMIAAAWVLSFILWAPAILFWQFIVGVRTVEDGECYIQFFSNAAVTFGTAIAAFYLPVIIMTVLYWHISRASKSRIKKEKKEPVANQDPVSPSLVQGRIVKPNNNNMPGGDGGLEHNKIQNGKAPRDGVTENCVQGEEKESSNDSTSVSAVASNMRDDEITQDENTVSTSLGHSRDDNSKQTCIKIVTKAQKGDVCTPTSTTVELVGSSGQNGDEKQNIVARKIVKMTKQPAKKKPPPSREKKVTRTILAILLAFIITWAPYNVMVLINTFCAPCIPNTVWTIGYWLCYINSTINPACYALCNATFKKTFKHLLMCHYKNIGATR

[4] = molecular target: Muscarinic acetylcholine receptor M3 (Rattus norvegicus, UniProt P08483)
Sequence of Muscarinic acetylcholine receptor M3 (P08483 whole entry): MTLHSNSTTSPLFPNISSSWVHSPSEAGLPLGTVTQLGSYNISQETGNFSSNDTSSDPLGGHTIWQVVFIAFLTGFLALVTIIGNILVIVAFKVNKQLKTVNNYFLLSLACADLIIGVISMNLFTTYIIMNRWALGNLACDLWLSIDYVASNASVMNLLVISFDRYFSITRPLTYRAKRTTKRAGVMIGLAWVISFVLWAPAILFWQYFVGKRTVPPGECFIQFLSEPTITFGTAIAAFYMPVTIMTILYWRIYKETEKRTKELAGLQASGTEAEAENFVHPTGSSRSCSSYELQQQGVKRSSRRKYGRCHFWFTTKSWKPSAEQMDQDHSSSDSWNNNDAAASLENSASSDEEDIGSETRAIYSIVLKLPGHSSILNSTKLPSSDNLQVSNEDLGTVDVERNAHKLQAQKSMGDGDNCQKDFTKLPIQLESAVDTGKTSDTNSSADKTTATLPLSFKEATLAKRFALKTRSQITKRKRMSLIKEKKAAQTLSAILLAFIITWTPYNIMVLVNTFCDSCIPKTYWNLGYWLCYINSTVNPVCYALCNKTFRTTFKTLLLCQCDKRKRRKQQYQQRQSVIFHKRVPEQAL

| Compound | Ki [1] | Ki [2] | Ki [3] | Ki [4] |
| --- | --- | --- | --- | --- |
| C[N+]1(C)CCC(OC(=O)C(c2ccccc2)c2ccccc2)CC1 | 5.6 nM | 5.2 nM and 5.6 nM |  |  |
| CN1CCN(CC(=O)N2c3ccccc3C(=O)Nc3cccnc32)CC1 [11-[(4-methylpiperazin-1-yl)acetyl]-5,11-dihydro-6H-pyrido[2,3-b][1,4]benzodiazepin-6-one] | 400 nM |  |  |  |
| CCN(CC)CC1CCCCN1CC(=O)N1c2ccccc2C(=O)Nc2cccnc21 (configuration not stated) [(AF-DX 116) 11-[2-(2-Diethylaminomethyl-piperidin-1-yl)-acetyl]-5,11-dihydro-benzo[e]pyrido[3,2-b][1,4]diazepin-6-one] | 1600 nM | 1700 nM and 1500 nM | 74 nM | 4800 nM |
| O[Si](CCCN1CCCCC1)(c1ccccc1)C1CCCCC1 (configuration not stated) [HHSiD] | 100 nM | 93 nM and 110 nM |  | 50 nM |
| C[C@H]1OC(=O)C2C[C@H]3CCCC[C@@H]3[C@@H](/C=C/[C@@H]3CCC[C@H](C)N3C)C21 (some centres not stated) [HIMBACINE] | 60 nM | 46 nM and 50 nM | 15 nM | 900 nM |
| COc1ccccc1CNCCCCCCNCCCCCCCCNCCCCCCNCc1ccccc1OC [METHOCTRAMINE] | 160 nM | 130 nM and 100 nM |  | 3000 nM |
